Assay results taken from patent US20250011368A1, “DLL3 TARGETING PEPTIDES AND CONSTRUCTS THEREOF” (MARIANA ONCOLOGY INC., priority 2023, published 2025).
Numbered stars: 1 amine (or outer) side, 2 acyl side, 3 side chain; on linkers, the order of the positions; unused ones are H or OH. Bridge positions count the residues as written; N and C are the ends. Square brackets hold non-standard residues; d marks the D form. Peptide text beside a SMILES is read from it. * marks the point of attachment. Ala(piperidin-4-yl) = O=C([C@H](CC1CCN([*:3])CC1)N[*:1])[*:2]; DOTA = O=C(O)CN1CCN(CC(=O)O)CCN(CC(=O)*)CCN(CC(=O)O)CC1; Phe(4-CF3) = N[C@@H](Cc1ccc(C(F)(F)F)cc1)C(=O)O; Trp(5-F) = N[C@@H](Cc1c[nH]c2ccc(F)cc12)C(=O)O; Trp(7-aza) = N[C@@H](Cc1c[nH]c2ncccc12)C(=O)O; Pro(trans-4-F) = O=C(O)[C@@H]1C[C@@H](F)CN1; 2Nal = N[C@@H](Cc1ccc2ccccc2c1)C(=O)O; Nva(3-Et) = CCC(CC)[C@H](N)C(=O)O; 4Pal = N[C@@H](Cc1ccncc1)C(=O)O; CH2 = C([*:1])[*:2]

T1: human DLL3 (Homo sapiens, UniProt Q9NYJ7)
T1 sequence (Q9NYJ7 27-618): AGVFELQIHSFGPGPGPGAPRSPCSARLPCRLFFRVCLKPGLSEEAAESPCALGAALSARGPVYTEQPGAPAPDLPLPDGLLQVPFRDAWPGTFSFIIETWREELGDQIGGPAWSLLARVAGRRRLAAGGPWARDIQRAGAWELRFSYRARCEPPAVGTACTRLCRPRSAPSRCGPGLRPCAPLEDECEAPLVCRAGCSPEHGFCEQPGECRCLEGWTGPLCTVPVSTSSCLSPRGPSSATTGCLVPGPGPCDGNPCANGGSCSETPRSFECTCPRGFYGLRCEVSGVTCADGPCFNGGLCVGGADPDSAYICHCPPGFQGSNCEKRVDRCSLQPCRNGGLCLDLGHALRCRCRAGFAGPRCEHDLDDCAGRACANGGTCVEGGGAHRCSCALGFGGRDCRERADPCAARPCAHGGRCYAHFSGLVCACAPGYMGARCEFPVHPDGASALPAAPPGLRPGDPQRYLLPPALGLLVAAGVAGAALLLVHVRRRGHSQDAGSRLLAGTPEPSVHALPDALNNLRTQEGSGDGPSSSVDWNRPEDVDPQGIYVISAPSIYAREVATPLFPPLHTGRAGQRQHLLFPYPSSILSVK

T2: DLL3 on SHP-77 cells (human, UniProt Q9NYJ7 27-618)
T2 construct: SHP-77 cells are human-derived, non-engineered SCLC cells
T2 sequence: T1 sequence (Q9NYJ7 27-618)

T3: DLL3 on CT26.DLL3 cells (Homo sapiens (Human), UniProt Q9NYJ7 27-618)
T3 construct: CT26.DLL3 are engineered cells to express DLL3
T3 sequence: T1 sequence (Q9NYJ7 27-618)


Experiments:
SHP-77 cells = experiment: Cell binding (total uptake) of [177Lu]Lu-test peptide, SHP-77 cells; type: cell-based; settings: SHP77 cells, 1 hour at 37° C., bound fraction
Experimental: (§1) [^177Lu]LuCl3 was received from venders in HCl solution. For every mCi of [^177Lu]LuCl3 added to the reaction vial (1.5 mL Eppendorf vial), ammonium acetate buffer (0.2 M, pH 4.9, 100 μL, containing 1% w/v ascorbic acid and 6% v/v ethanol) and peptide conjugate (1 nmol). A peptide conjugate of the present disclosure is also referred to herein as a “chelator-peptide”. The pH of the solution was determined to be approximately 5 by using pH strips. The reaction vial was incubated at 80° C., 700 RPM for 17-20 minutes. A sample from the reaction was analyzed by RP-HPLC using an Agilent Infinity II 1260 HPLC to determine reaction completion and radiochemical purity of [^177Lu]Lu-chelator-peptide. HPLC conditions: Waters XBridge BEH C18 Column, 130 Å, 3.5 um, 4.6 mm×250 mm; mobile phase: Solvent A=water (with 0.1% formic acid), solvent B=acetonitrile (with 0.1% formic acid). Gradients: 25-45% B in 10 minutes, 45-65% B in 12 minutes, 65-90% in 6 minutes at a flow rate of 0.5 mL/minute. Required amounts of the product was formulated in 1% PBSA for cell studies.
(§2) The study was conducted using SHP-77, CT26.WT, and CT26.DLL3 cells (Table 7) Adherent cell studies: The cells were cultured in appropriate culture media (20 mL) in tissue culture treated T150 flasks at 37° C. and 5% CO2. Adherent cells were detached (60-70% confluent) using 5 mL Versene at 37° C. for 3 minutes. After confirming the viability using countess and count of detached cells using Trypan blue, the cells were centrifuged at 4° C. for 5 minutes (1,000 rpm). The cell pellet obtained was washed once with PBS and resuspended in 1% PBSA to obtain the desired cell concentration (5-25 million cells/mL).
Suspension cell studies: The cells were cultured in appropriate culture media (20 mL) in tissue culture treated T150 flasks at 37° C. and 5% CO2. After confirming the viability and count of detached cells using Trypan blue, the cells were centrifuged at 4° C. for 5 minutes (1,000 rpm). The cell pellet obtained was washed once with PBS and resuspended in 1% PBSA to obtain the desired cell concentration (5-25 million cells/mL).
(§3) Cell numbers used for the assay were in the range of 5 million cells/condition −25 million cells/condition.
(§4) Total uptake: Cells were incubated with 300 μL (0.8 μCi) of the incubation buffer (containing radiolabeled peptide [^177Lu] Lu-test peptide) for 1 hour at 37° C. (Table 8). Post incubation, the cells were pelleted and washed 2 times using cold PBS+1% BSA. The supernatant and washes were combined and counted together as “unbound fraction” in a gamma counter. The cells were then resuspended in 300 μL of 1% PBS+1% BSA and counted in the gamma counter as “bound fraction”.
(§5) In these Tables, “A” represents %≤25; “B” represents 25<%≤50; “C” represents %>50.

human DLL3 = molecular target: T1, human DLL3; experiment: Affinity determination by Surface Plasmon Resonance (SPR); type: binding; settings: 25° C., biotinylated human DLL3 immobilized on streptavidin sensor chip, 1:1 binding model; read-out: SPR KD
Summary of the method: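 Biotinylated human DLL3 was captured on a streptavidin chip with a reference surface. Compounds at several concentrations were injected at 100 μL/minute in phosphate buffer (137 mM NaCl, 2.7 mM KCl, 0.05% P20, 2% DMSO). Affinity and kinetics came from 1:1 model fits of the sensorgrams.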

SHP-77 tumors = experiment: Ex vivo biodistribution of radiolabeled peptides in nude mice bearing SHP-77 tumors; settings: [177Lu]Lu labelling, nude mice bearing SHP-77 tumors (n = 3), 24 hours post-injection
Summary of the method: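 Nude mice bearing SHP-77 xenografts (200-400 mm^3) or tumor-naïve mice (5-7 weeks) received an intravenous tail-vein bolus of [^177Lu]Lu-peptide and were euthanized at pre-set time points. Tissues were weighed and gamma-counted, with counts decay-corrected to injection time. Values are % IA/g per tissue from the injected activity of each mouse.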

CT26.DLL3 cells = experiment: Cell binding (total uptake) of [177Lu]Lu-test peptide, CT26.DLL3 cells; type: cell-based; settings: 1 hour at 37° C.
Experimental: as §1, §2, §3, §4, §5

DLL3 on SHP-77 cells = molecular target: T2, DLL3 on SHP-77 cells; experiment: 177Lu-peptide bound to SHP-77 cells, gamma counting; letter grade, key in paragraph 629
Experimental: as §2
(§6) Total uptake: Cells were incubated with 300 μL (0.8 μCi) of the incubation buffer (containing radiolabeled peptide [¹⁷⁷Lu] Lu-test peptide) for 1 hour at 37° C. (Table 8). Post incubation, the cells were pelleted and washed 2 times using cold PBS+1% BSA. The supernatant and washes were combined and counted together as “unbound fraction” in a gamma counter. The cells were then resuspended in 300 μL of 1% PBS+1% BSA and counted in the gamma counter as “bound fraction”.

DLL3 on CT26.DLL3 cells = molecular target: T3, DLL3 on CT26.DLL3 cells; experiment: 177Lu-peptide bound to CT26.DLL3 cells, gamma counting; letter grade, key in paragraph 629
Experimental: as §2, §6

Molecule | % Binding (SHP-77 cells) | Kd (human DLL3) | % Binding (DLL3 on SHP-77 cells) | further results
CC[C@H](C)[C@H](NC(=O)[C@@H](NC(=O)[C@H](Cc1c[nH]c2ccccc12)NC(C)=O)[C@@H](C)O)C(=O)N[C@H]1CSSC[C@@H](C(=O)N[C@@H](Cc2c[nH]c3ccccc23)C(=O)N2CCC[C@H]2C(=O)N[C@H](CCCCNC(=O)CN2CCN(CC(=O)O)CCN(CC(=O)O)CCN(CC(=O)O)CC2)C(N)=O)NC(=O)[C@H](CC(=O)O)NC(=O)[C@H](Cc2cnc[nH]2)NC(=O)[C@H](Cc2c[nH]c3ccccc23)NC(=O)[C@H](CC(N)=O)NC(=O)[C@H](CC(N)=O)NC1=O [compound 23, Ac-W-T-I-C(3)-N-N-W-H-D-C(3)-W-P-[D-Lys(DOTA)]-NH2] (Ac-WTICNNWHDCWP[dK](DOTA)-NH2; disulfide 4-10) | A (%≤25) | 1 to 10 nM | – | kidney uptake (% IA/g) (SHP-77 tumors): D (% IA/g > 10 in kidney); tumor uptake (% IA/g) (SHP-77 tumors): A (0 < % IA/g ≤ 5 in tumor); % Binding (CT26.DLL3 cells): A (%≤25)
CCC(CC)[C@H](NC(=O)[C@@H](NC(=O)[C@H](Cc1c[nH]c2ccc(F)cc12)NC(C)=O)[C@@H](C)O)C(=O)N[C@H]1CSSC[C@@H](C(=O)N[C@@H](Cc2c[nH]c3ncccc23)C(=O)N2C[C@H](F)C[C@H]2C(=O)N[C@H](CCCCNC(=O)CN2CCN(CC(=O)O)CCN(CC(=O)O)CCN(CC(=O)O)CC2)C(N)=O)NC(=O)[C@H](CC(=O)O)NC(=O)[C@H](Cc2cnc[nH]2)NC(=O)[C@H](Cc2ccc(C(F)(F)F)cc2)NC(=O)[C@H](CC(N)=O)NC(=O)[C@H](CC(N)=O)NC1=O [compound 146, Ac-(5Fluoro-W)-T-(Env)-C(3)-N-N-(4CF3-F)-H-D-C(3)-(7Aza-W)-(trans4Fluoro-P)-[D-Lys(DOTA)]-NH2] (Ac-[Trp(5-F)]T[Nva(3-Et)]CNN[Phe(4-CF3)]HDC[Trp(7-aza)][Pro(trans-4-F)][dK](DOTA)-NH2; disulfide 4-10) | A (%≤25) | < 1 nM | – | kidney uptake (% IA/g) (SHP-77 tumors): C (0 < % IA/g ≤ 10 in kidney); tumor uptake (% IA/g) (SHP-77 tumors): A (0 < % IA/g ≤ 5 in tumor)
CC[C@H](C)[C@H](NC(=O)[C@@H](NC(=O)[C@H](Cc1c[nH]c2ccccc12)NC(C)=O)[C@@H](C)O)C(=O)N[C@H]1CSCSC[C@@H](C(=O)N[C@@H](Cc2c[nH]c3ccccc23)C(=O)N2CCC[C@H]2C(=O)N[C@H](CCCCNC(=O)CN2CCN(CC(=O)O)CCN(CC(=O)O)CCN(CC(=O)O)CC2)C(N)=O)NC(=O)[C@H](CC(=O)O)NC(=O)[C@H](Cc2cnc[nH]2)NC(=O)[C@H](Cc2ccc3ccccc3c2)NC(=O)[C@H](CC(N)=O)NC(=O)[C@H](CC(N)=O)NC1=O [compound 165, Ac-WTI-C(1)-NN(2Nal)HD-C(1)-WP-[D-Lys(DOTA)]-NH2] (Ac-WTICNN[2Nal]HDCWP[dK](DOTA)-NH2; linker 4-10 via CH2) | A (%≤25) | < 1 nM | – | –
CC[C@H](C)[C@H](NC(=O)[C@@H](NC(=O)[C@H](Cc1c[nH]c2ccccc12)NC(C)=O)[C@@H](C)O)C(=O)N[C@H]1CSSC[C@@H](C(=O)N[C@@H](Cc2c[nH]c3ccccc23)C(=O)N2CCC[C@H]2C(=O)N[C@@H](CCCCNC(=O)CN2CCN(CC(=O)O)CCN(CC(=O)O)CCN(CC(=O)O)CC2)C(N)=O)NC(=O)[C@H](CC(=O)O)NC(=O)[C@H](Cc2cnc[nH]2)NC(=O)[C@H](Cc2ccc3ccccc3c2)NC(=O)[C@H](CC(N)=O)NC(=O)[C@H](CC(N)=O)NC1=O [compound 166, Ac-W-T-I-C(3)-N-N-(2Nal)-H-D-C(3)-W-P-[L-Lys(DOTA)]-NH2] (Ac-WTICNN[2Nal]HDCWPK(DOTA)-NH2; disulfide 4-10) | A (%≤25) | < 1 nM | – | –
Ac-WTICNN[2Nal]HDCWPK(DOTA)-NH2 (disulfide 4-10; also: 177Lu chelated in DOTA, also called [177Lu]Lu-test peptide) [[177Lu]Lu-labelled Cpd No. 166] | – | – | ≤ 25% | –
Ac-WTICNNWHDCWP[dK](DOTA)-NH2 (disulfide 4-10; also: 177Lu chelated in DOTA, also called [177Lu]Lu-test peptide) [[177Lu]Lu-labelled Cpd No. 23] | – | – | ≤ 25% | % Binding (DLL3 on CT26.DLL3 cells): ≤ 25%
Ac-WTICNN[2Nal]HDCWP[dK](DOTA)-NH2 (disulfide 4-10; also: 177Lu in the DOTA chelator, also called [177Lu]Lu-test peptide) [[177Lu]Lu-labelled Cpd No. 75] | – | – | ≤ 25% | –
Ac-WTICN[4Pal][2Nal]HDCWP[dK](DOTA)-NH2 (disulfide 4-10; also: 177Lu in the DOTA chelator, also called [177Lu]Lu-test peptide) [[177Lu]Lu-labelled Cpd No. 266] | – | – | – | % Binding (DLL3 on CT26.DLL3 cells): ≤ 25%
Ac-[Trp(5-F)]T[Nva(3-Et)]CNN[Phe(4-CF3)]HDC[Trp(7-aza)][Pro(trans-4-F)][dK](DOTA)-NH2 (disulfide 4-10; also: 177Lu complexed in the DOTA chelator) [[177Lu]Lu-labelled Cpd No. 146] | – | – | < 25% | –
Ac-WTICNN[2Nal]HDCWP[dK](DOTA)-NH2 (bridge 4-10; also: 177Lu chelated in DOTA, also called [177Lu]Lu-test peptide) [[177Lu]Lu-labelled Cpd No. 165] | – | – | ≤ 25% | –
Ac-WTICN[Ala(piperidin-4-yl)][2Nal]HDCWP[dK](DOTA)-NH2 (disulfide 4-10; also: 177Lu in the DOTA chelator, also called [177Lu]Lu-test peptide) [[177Lu]Lu-labelled Cpd No. 267] | – | – | – | % Binding (DLL3 on CT26.DLL3 cells): ≤ 25%
